SMILES strings stand for the structures.

The first assay has as its system bacterial pool: Burkholderia cepacia, Pseudomonas aeruginosa, Psuedomonas putida, Acinetobacter lwoffii. The assay can be described thus: Modified preservative challenge test (Ph. Eur. 5.1.3) in laundry liquid, Total Viable Count pour plate. The format is cell-based. The note with it: 0.5% in Example 1 laundry liquid; 7 days. On the procedure: A modified challenge that complies with the current European Pharmacopoeia (Ph. Eur. Or EP) 5.1.3 criteria was performed on a subsample of both the unpreserved and each dosed product. The bacterial pool was added to each sample container at a ratio of 1:100. The final concentration of inoculum in the product should be between 5×10^5 and 5×10^6 CFU/G of test product. Each product is mixed with a sterile spatula to ensure a homogenous distribution of the inocula throughout the product. [table] Both the inoculum level and the level of microorganism within each sample was quantified using a Total Viable Count (TVC) pour plate method at 7, 14, 21 and 28 days. A 1:10 dilution was made with a subsample of each product, performed separately in Peptone (0.1%)/tween 80 (2%) neutralising agent. A 1:10 and 1:100 dilution of each subsample was performed and pour plates produced at each dilution using tryptone soya agar. Plates were incubated at 28° C. for 48 hours and then examined for growth. Visible colonies were counted with the aid of a Quebec Colony Counter and recorded for analysis against the challenge test criteria. During the removal of a subsample of product for TVC, a re-inoculation is performed at 7 and 14 days, reintroducing 5×10^6 CFU/G of bacteria before mixing using a sterile spatula to homogenise the re-inoculation.
Turning to `C=C(CC(=O)O)C(=O)O` [Itaconic acid], the “Microbial Log reduction” value is recorded as greater than 5.59.

Turning to `CC(O)C(=O)O` (stereo not drawn) [Lactic acid], the “Microbial Log reduction” value is on record as greater than 5.59.

As for `O=C(O)CC(O)(CC(=O)O)C(=O)O` [Citric acid], the “Microbial Log reduction” value is greater than 5.59.

Staying with this assay, now noted: 0.5% in Example 1 laundry liquid; 14 days; re-inoculated at 7 days.
With `C=C(CC(=O)O)C(=O)O` [Itaconic acid], the “Microbial Log reduction” value was greater than 5.54.

Regarding `CC(O)C(=O)O` (stereo not drawn) [Lactic acid], the “Microbial Log reduction” value is on record as 2.32.

In the case of `O=C(O)CC(O)(CC(=O)O)C(=O)O` [Citric acid], the “Microbial Log reduction” value was less than 2.54.

Staying with this assay, now noted: 0.5% in Example 1 laundry liquid; 21 days; re-inoculated at 7 and 14 days.
On to `C=C(CC(=O)O)C(=O)O` [Itaconic acid], for which the “Microbial Log reduction” value is greater than 5.56.

Regarding `CC(O)C(=O)O` (stereo not drawn) [Lactic acid], the “Microbial Log reduction” value is reported as less than 2.56.

On to `O=C(O)CC(O)(CC(=O)O)C(=O)O` [Citric acid], for which the “Microbial Log reduction” value is less than 2.56.

The same assay, now with this note: 0.5% in Example 1 laundry liquid; 28 days; re-inoculated at 7 and 14 days.
In the case of `C=C(CC(=O)O)C(=O)O` [Itaconic acid], the “Microbial Log reduction” value is on record as greater than 5.56.

With `CC(O)C(=O)O` (stereo not drawn) [Lactic acid], the “Microbial Log reduction” value is listed as less than 2.56.

Regarding `O=C(O)CC(O)(CC(=O)O)C(=O)O` [Citric acid], the “Microbial Log reduction” value was less than 2.56.

Staying with this assay, now noted: 1.0% in Example 1 laundry liquid; 7 days.
As to `C=C(CC(=O)O)C(=O)O` [Itaconic acid], the “Microbial Log reduction” value is greater than 5.59.

For `CC(O)C(=O)O` (stereo not drawn) [Lactic acid], the “Microbial Log reduction” value is listed as greater than 5.59.

Consider `O=C(O)CC(O)(CC(=O)O)C(=O)O` [Citric acid], for which the “Microbial Log reduction” value is listed as greater than 5.59.

The assay is the same for the next values; noted with them: 1.0% in Example 1 laundry liquid; 14 days; re-inoculated at 7 days.
With `C=C(CC(=O)O)C(=O)O` [Itaconic acid], the “Microbial Log reduction” value is reported as greater than 5.54.

With `CC(O)C(=O)O` (stereo not drawn) [Lactic acid], the “Microbial Log reduction” value was greater than 5.54.

`O=C(O)CC(O)(CC(=O)O)C(=O)O` [Citric acid]: the “Microbial Log reduction” value is on record as greater than 5.54.

The assay is the same for the next values; noted with them: 1.0% in Example 1 laundry liquid; 21 days; re-inoculated at 7 and 14 days.
Consider `C=C(CC(=O)O)C(=O)O` [Itaconic acid], for which the “Microbial Log reduction” value is recorded as greater than 5.56.

In the case of `CC(O)C(=O)O` (stereo not drawn) [Lactic acid], the “Microbial Log reduction” value is recorded as greater than 5.56.

For `O=C(O)CC(O)(CC(=O)O)C(=O)O` [Citric acid], the “Microbial Log reduction” value is given as greater than 5.56.

The same assay, now with this note: 1.0% in Example 1 laundry liquid; 28 days; re-inoculated at 7 and 14 days.
With `C=C(CC(=O)O)C(=O)O` [Itaconic acid], the “Microbial Log reduction” value is recorded as greater than 5.56.

As to `CC(O)C(=O)O` (stereo not drawn) [Lactic acid], the “Microbial Log reduction” value was greater than 5.56.

For `O=C(O)CC(O)(CC(=O)O)C(=O)O` [Citric acid], the “Microbial Log reduction” value is given as greater than 5.56.

The assay is the same for the next values; noted with them: summary of the challenge test data set.
For the molecule `C=C(CC(=O)O)C(=O)O` [Itaconic acid], the “Preservation of a laundry liquid composition (result in words)” value (from here on “Preservation”) was “effective preservative”.

As for `CC(O)C(=O)O` (stereo not drawn) [Lactic acid], the “Preservation” value is “not capable of effectively preserving a laundry liquid composition”.

Turning to `O=C(O)CC(O)(CC(=O)O)C(=O)O` [Citric acid], the “Preservation” value is recorded as “not capable of effectively preserving a laundry liquid composition”.

For the origin of these results see patent US20210348086A1, “COMPOSITION” (Conopco Inc., d/b/a UNILEVER, priority 2018, published 2021).
